This note sets out measurements from US10131652B2, “Pyrimidinyloxy benzene derivatives as herbicides” (E. I. DU PONT DE NEMOURS AND COMPANY, priority 2014, dated 2018).

Assay type in all cases: in vivo
Assay [1] has as its system barnyardgrass (Echinochloa crus-galli). The assay can be described thus: Test B pre-/postemergence plant response. An excerpt: (§1) Seeds of plant species selected from bamyardgrass (Echinochloa crus-galli), kochia (Kochia scoparia), ragweed (common ragweed, Ambrosia elatior), Italian ryegrass (Lolium multiflorum), large (Lg) crabgrass (Digitaria sanguinalis), giant foxtail (Setaria faberii), momingglory (Ipomoea spp.), pigweed (Amaranthus retroflexus), velvetleaf (Abutilon theophrasti), wheat (Triticum aestivum), and corn (Zea mays) were planted into a blend of loam soil and sand and treated preemergence with a directed soil spray using test chemicals formulated in a non-phytotoxic solvent mixture which included a surfactant. At the same time, plants selected from these crop and weed species and also blackgrass (Alopecurus myosuroides), and galium (catchweed bedstraw, Galium aparine) were planted in pots containing the same blend of loam soil and sand and treated with postemergence applications of test chemicals formulated in the same manner. Plants ranged in height from 2 to 10 cm and were in the one- to two-leaf stage for the postemergence treatment. Treated plants and untreated controls were maintained in a greenhouse for approximately 10 days, after which time all treated plants were compared to untreated controls and visually evaluated for injury. Plant response ratings, summarized in Table B, are based on a 0 to 100 scale where 0 is no effect and 100 is complete control. A dash (-) response means no test result.

The next assay has as its system corn (Zea mays). The assay can be described thus: Test B pre-/postemergence plant response.
Source text: as §1

Assay [2] relates to giant foxtail (Setaria faberii). In words: Test B pre-/postemergence plant response.
Source text: as §1

The subject of assay [3] is large (Lg) crabgrass (Digitaria sanguinalis). In words: Test B pre-/postemergence plant response. To be noted: 1000 g ai/ha, 0 to 100 scale (0 no effect, 100 complete control).
Source text: as §1

Assay [4] deals with morningglory (Ipomoea spp.). In words: Test B pre-/postemergence plant response. To be noted: 1000 g ai/ha, 0 to 100 scale (0 no effect, 100 complete control).
Source text: as §1

Assay [5] has as its system pigweed (Amaranthus retroflexus). In words: Test B pre-/postemergence plant response.
Source text: as §1

The test system of assay [6] is velvetleaf (Abutilon theophrasti). In words: Test B pre-/postemergence plant response. Conditions: 1000 g ai/ha, 0 to 100 scale (0 no effect, 100 complete control).
Source text: as §1

Assay [7] relates to wheat (Triticum aestivum). The assay can be described thus: Test B pre-/postemergence plant response.
Source text: as §1

The subject of assay [8] is Italian ryegrass (Lolium multiflorum). The assay can be described thus: Test B pre-/postemergence plant response.
Source text: as §1

The test system of a further assay is kochia (Kochia scoparia). In words: Test B pre-/postemergence plant response.
Source text: as §1

The subject of assay [9] is ragweed (common ragweed, Ambrosia elatior). The assay can be described thus: Test B pre-/postemergence plant response.
Source text: as §1

In assay [10] the test system is blackgrass (Alopecurus myosuroides). The assay can be described thus: Test B postemergence plant response. An excerpt:
(§2) At the same time, plants selected from these crop and weed species and also blackgrass (Alopecurus myosuroides), and galium (catchweed bedstraw, Galium aparine) were planted in pots containing the same blend of loam soil and sand and treated with postemergence applications of test chemicals formulated in the same manner. Plants ranged in height from 2 to 10 cm and were in the one- to two-leaf stage for the postemergence treatment. Treated plants and untreated controls were maintained in a greenhouse for approximately 10 days, after which time all treated plants were compared to untreated controls and visually evaluated for injury. Plant response ratings, summarized in Table B, are based on a 0 to 100 scale where 0 is no effect and 100 is complete control. A dash (-) response means no test result.

Assay [11] relates to galium (catchweed bedstraw, Galium aparine). The assay can be described thus: Test B postemergence plant response.
Source text: as §2

The mark [12] stands for this setting: Postemergence, 1000 g ai/ha, 0 to 100 scale (0 no effect, 100 complete control).
Where [13] appears, read: Preemergence, 1000 g ai/ha, 0 to 100 scale (0 no effect, 100 complete control).
[14] abbreviates: 31 g ai/ha, Postemergence, 0 to 100 scale, 0 no effect, 100 complete control.
The mark [15] stands for this setting: 125 g ai/ha, postemergence, 0 to 100 scale, 0 no effect, 100 complete control.
Where [16] appears, read: Preemergence, 31 g ai/ha, 0 to 100 scale (0 no effect, 100 complete control).
Where [17] appears, read: Preemergence, 125 g ai/ha, 0 to 100 scale where 0 is no effect and 100 is complete control.

In the case of `ClCc1cc(-c2ccccc2Oc2ncc(Cl)cn2)no1` [Compound 34], the “Plant response rating, Barnyardgrass” value in [1] (setting [12]) and in [1] (setting [13]) was 0 in each case. The “Plant response rating, Corn” value with corn (Zea mays) (setting [12]) and in the assay with corn (Zea mays) (setting [13]) was 0 in each case. Moreover, the “Plant response rating, Foxtail, Giant” value is 0 in assay [2] (setting [12]) and 10 in assay [2] (setting [13]). Besides, the “Plant response rating, Crabgrass, Large” value in assay [3] (Postemergence) and in [3] (Preemergence) was 10 each time. Moreover, the “Plant response rating, Morningglory” value in assay [4] (Postemergence) and in [4] (Preemergence) was 0 throughout. In addition, the “Plant response rating, Pigweed” value in assay [5] (setting [12]) is 40; in assay [5] (setting [13]), 100. For the same molecule, the “Plant response rating, Velvetleaf” value in assay [6] (Postemergence) is recorded as 20; in assay [6] (Preemergence), 10. The “Plant response rating, Wheat” value in assay [7] (setting [12]) and in assay [7] (setting [13]) was 0 in each case.

On to `FC(F)=Cc1cc(-c2c(F)cccc2Oc2ncc(Cl)cn2)no1` [Compound 91], for which the “Plant response rating, Ryegrass, Italian” value in assay [8] (setting [14]), in assay [8] (setting [15]) and in assay [8] (setting [17]) was 0 each time. Moreover, in assay [8] (setting [16]), the “Ryegrass, Italian plant response rating” value was 0. The “Plant response rating, Barnyardgrass” value in assay [1] (setting [14]), in [1] (setting [15]) and in assay [1] (setting [17]) was 0 in each case. In addition, the “Barnyardgrass plant response rating” value in [1] (setting [16]) is given as 0. In addition, the “Plant response rating, Corn” value with corn (Zea mays) (setting [14]) and in the assay with corn (Zea mays) (setting [15]) was 0 throughout. The “Plant response rating, Foxtail, Giant” value in assay [2] (setting [14]), in assay [2] (setting [15]) and in assay [2] (setting [17]) was 0 each time. Besides, the “Foxtail, Giant plant response rating” value in assay [2] (setting [16]) was 0. Also, the “Plant response rating, Kochia” value with kochia (Kochia scoparia) (setting [14]), with kochia (Kochia scoparia) (setting [15]) and with kochia (Kochia scoparia) (setting [17]) was 0 throughout. In addition, the “Kochia plant response rating” value in the assay on kochia (Kochia scoparia) (setting [16]) is given as 0. Besides, the “Plant response rating, Pigweed” value in assay [5] (setting [14]), in [5] (setting [15]) and in [5] (setting [17]) was 0 each time. In addition, the “Pigweed plant response rating” value in assay [5] (setting [16]) was 0. Further, the “Plant response rating, Ragweed” value in assay [9] (setting [14]), in assay [9] (setting [15]) and in assay [9] (setting [17]) was 0 in each case. In addition, in assay [9] (setting [16]), the “Ragweed plant response rating” value was 0. Besides, the “Plant response rating, Wheat” value in assay [7] (setting [14]) and in assay [7] (setting [15]) was 0 each time. Also, the “Plant response rating, Blackgrass” value in assay [10] (setting [14]) and in [10] (setting [15]) was 0 throughout. For the same molecule, the “Plant response rating, Galium” value in assay [11] (setting [14]) and in assay [11] (setting [15]) was 0 throughout.

For the molecule `CCOC(=O)c1cc(-c2ccccc2Oc2ncc(Cl)cn2)no1` [Compound 148], the “Plant response rating, Ryegrass, Italian” value in assay [8] (setting [12]) and in assay [8] (setting [13]) was 0 throughout. For the same molecule, the figures for the “Plant response rating, Barnyardgrass” value in assay [1] (setting [12]) and in assay [1] (setting [13]) were 10 and 0, respectively. Moreover, in the assay on corn (Zea mays) (setting [12]), the “Plant response rating, Corn” value is given as 0. In addition, the “Plant response rating, Foxtail, Giant” value in [2] (setting [12]) was found to be 10; in assay [2] (setting [13]), 0. The “Plant response rating, Kochia” value in the assay with kochia (Kochia scoparia) (setting [12]) and in the assay with kochia (Kochia scoparia) (setting [13]) was 0 throughout. In addition, the “Plant response rating, Pigweed” value in assay [5] (setting [12]) and in assay [5] (setting [13]) was 0 throughout. Further, the “Plant response rating, Ragweed” value in [9] (setting [12]) is 0. Besides, in assay [7] (setting [12]), the “Plant response rating, Wheat” value turned out to be 0. In addition, in assay [10] (setting [12]), the “Plant response rating, Blackgrass” value is listed as 10. Further, the “Plant response rating, Galium” value in assay [11] (setting [12]) was 0.

Consider `COC(=O)c1cc(-c2ccccc2Oc2ncc(Cl)cn2)no1` [Compound 235], for which the “Plant response rating, Ryegrass, Italian” value in [8] (setting [12]) and in assay [8] (setting [13]) was 0 in each case. The “Plant response rating, Barnyardgrass” value in assay [1] (setting [12]) and in assay [1] (setting [13]) was 0 each time. Also, the “Plant response rating, Corn” value with corn (Zea mays) (setting [12]) was 0. For the same molecule, the “Plant response rating, Foxtail, Giant” value in assay [2] (setting [12]) and in assay [2] (setting [13]) was 0 throughout. The “Plant response rating, Kochia” value in the assay with kochia (Kochia scoparia) (setting [12]) and in the assay on kochia (Kochia scoparia) (setting [13]) was 0 throughout. Further, the “Plant response rating, Pigweed” value in assay [5] (setting [12]) and in assay [5] (setting [13]) was 0 throughout. Further, the “Plant response rating, Ragweed” value in assay [9] (setting [12]) and in [9] (setting [13]) was 0 in each case. Besides, the “Plant response rating, Wheat” value in assay [7] (setting [12]) came out at 0. The “Plant response rating, Blackgrass” value in assay [10] (setting [12]) is 0. For the same molecule, the “Plant response rating, Galium” value in [11] (setting [12]) was 0.
